≈ marks a conversion by molar mass, not a printed value. Structures can show the parent of a compound that is named as a salt. Where two headings read alike, the source gives them in different places. Blank lines part the entries; values can stand above or below the compound they belong to.
Key:
[1] = target: T1, alkaline phosphatase (intestinal) (Bos taurus, UniProt P19111); experiment: Alkaline phosphatase stability assay; format: in vitro ADME; conditions: 2 μM substrate, 100 ng/mL purified Bovine intestinal alkaline phosphatase, Tris buffer pH 7.8; read-out: ALP half life
T1 construct: purchased MilliPore Sigma
Description: Alkaline Phosphatase Stability Assay
(§1) Alkaline phosphatase stability assays were carried out using purified Bovine intestinal alkaline phosphatase. Duplicate sets were performed with a TECAN liquid handler. Assay substrate concentrations were 2 μM. Purified Bovine intestinal alkaline phosphatase was acquired through MilliPore Sigma as a lyophilized powder. Reaction mixtures were prepared by the addition of 2 μL compound (400 μM stock solution in DMSO) into wells of a 96-well plate containing […] Tris buffer (100 mM, pH 7.8, 1 mM MgCl2 and 1 mM ZnCl2) with and without 100 ng/mL purified Bovine intestinal alkaline phosphatase. Samples were assessed at time points of 3, 30, 60, 120, 180 and 240 minutes. At each time point, 25 μL of the reaction mixtures were added into a 96-well plate containing 225 μL of quench solution (99% Acetonitrile with 1% Formic Acid and 100 nM Labetalol as internal standard). The plates containing the quench samples were then vortexed at 1100 RPM for 10 minutes and centrifuged at 4500 RPM for 20 minutes. 150 μL of the resulting supernatant was transferred into a 96-well plate containing 150 μL of water and vortexed at 1100 RPM for 3 minutes to mix.
(§2) Samples were analyzed with a Leap HTC Autosampler and a Dionex UltiMate 3000 HPLC system interfaced to a Thermo Q-Exactive mass spectrometer operating in positive ion electrospray mode. A Thermo Scientific Hypersil GOLD (1.9 μM particle size, 50×2.1 mm) HPLC column was used and mobile phase was pumped at 0.5 mL/min. Elution of analytes was achieved by a series of linear gradients of acetonitrile in water containing 0.1% (v/v) formic acid. Quantification was by analyte/internal standard peak area ratio (PAR).

[2] = Kinetic solubility at pH 1 and 7; format: physicochemical; conditions: 1.0% DMSO; for solubility kinetic at 24 h: 23 °C, kinetic from dmso stock
Description: Kinetic Solubility at pH 1 and 7
100-fold dilutions of each compound as DMSO stock solution were prepared by combining 3 μL of DMSO stock with 297 μL of the appropriate media in a Millipore solubility filter plate with 0.45 μM polycarbonate filter membrane using Hamilton Starlet liquid handling. The final DMSO Concentration is 1.0% and maximum theoretical compound concentration is […] (assuming stock concentration of 10 mM). The filter plate was sealed. Following 24-hour incubation at ambient temperature (22.2-23.6° C.), the samples were vacuum filtered, and the filtrates were collected in a 96 well polypropylene plate for analysis. The collection plate was sealed for analysis. Filtrates were injected into the nitrogen detector for quantification. The equimolar nitrogen response of the detector is calibrated using standards which span the dynamic range of the instrument from 0.08 to 4500 μg/ml nitrogen. The filtrates were quantified with respect to this calibration curve. The calculated solubility values are corrected for background nitrogen present in the DMSO, and the media used to prepare the samples

[3] = In vivo cyno pharmacokinetics; conditions: cynomolgus monkeys
Description: In Vivo Cyno Pharmacokinetics Experiments
In vivo cyno pharmacokinetic experiments of compound Comparator B and Example 1 were assessed as follows.
Compound Comparator B hydrochloride salt was dosed as a 30 mg/kg suspension to cynomolgus monkeys (N=3) using the following formulation: 0.5% Methocel E4M Premium, 0.1% Tween-80, 99.4% Water. Compound Comparator B free base was dosed separately as a 12.5 mg/kg (50 mg-fixed) suspension to cynomolgus monkeys (N=3) using the following formulation: 0.5% Methocel E4M Premium, 0.1% Tween-80, 99.4% Water. Compound Example 1 was dosed separately as a 12.5 mg/kg (50 mg-fixed) suspension to cynomolgus monkeys (N=3) using the following formulation: 0.5% Methocel E4M Premium, 0.1% Tween-80, 99.4% Water. […] As is shown in Table 4, the AUC 0-24 h measured for Comparator B in plasma was higher after dosing with Example 1 than the value measured after dosing with an equivalent dose of Comparator B.

[4] = Thermodynamic solubility in FaSSIF and FeSSIF; format: physicochemical; conditions: 20 hours, ambient temperature; for FaSSIF (pH 6.5): fasted-state simulated intestinal fluid pH 6.5; for FeSSIF (pH 5.0): fed-state simulated intestinal fluid pH 5.0
Description: Thermodynamic Solubility in FASSIF and FESSIF.
The aqueous solubility of compounds over a time of 20 hours was assessed. Solubility was determined at ambient temperature in buffered fasted-state simulated intestinal fluid (FaSSIF, pH 6.5) and buffered fed-state simulated intestinal fluid (FeSSIF, pH 5.0) prepared in-house using BioRelevant Simulated Intestinal Fluid (SIF) powder. Solids were added to FaSSIF or FeSSIF in 1.5-mL Eppendorf tubes, vortexed for 1 minute, then agitated for 20 hours in an Eppendorf ThermoMixer C. To determine concentration in solution, the suspensions were centrifuged for 10 min at 14,800 rpm and supernatants were diluted to a volume of 1 mL with 1:1 v/v acetonitrile:water. All diluted supernatants were analyzed by UPLC using a Waters Acquity UPLC with a PDA UV detector.

[5] = Assay buffer stability (Tris buffer without alkaline phosphatase); format: physicochemical; conditions: 2 μM substrate, Tris buffer pH 7.8 without alkaline phosphatase
Description: as §1, §2

[6] = In vivo rat pharmacokinetics; conditions: rat; Wister Han rats, 100 mg/kg suspension; Comparator C measured in plasma; read-out: Comparator C AUC 0-24 h
Description: In Vivo Rat Pharmacokinetics Experiments
In vivo Wister Han rat pharmacokinetic experiments of compound Comparator C and Example 4 were assessed as follows.
Compound Comparator C was dosed as a 100 mg/kg suspension to Wister Han rats (N=3) using the following formulation:30% captisol, 5% soluplus, 65% pH 2 water. Compound 1170997 was dosed separately as a 100 mg-eq/kg (123 mg/kg) solution to Wister Han rats (N=3) using the following formulation: 0.5% Methocel E4M Premium, 0.1% Tween-80, 99.4% Water. Samples were assessed for the presence of Comparator C.
Comparator C and Example 4. […] As is shown in Table 4, the AUC 0-24 h measured for Comparator C in plasma was higher after dosing with Example 4 than the value measured after dosing with an equivalent dose of Comparator C.

[7] = aqueous buffer, pH 7, 24-hour incubation at ambient temperature, read-out: Kinetic Solubility pH 7
[8] = simulated gastric fluid, pH 1, 24-hour incubation at ambient temperature, read-out: Kinetic Solubility pH 1
[9] = pH 1, 24-hour incubation at ambient temperature
[10] = pH 7, 24-hour incubation at ambient temperature

T1 sequence (P19111 20-506 limits assumed): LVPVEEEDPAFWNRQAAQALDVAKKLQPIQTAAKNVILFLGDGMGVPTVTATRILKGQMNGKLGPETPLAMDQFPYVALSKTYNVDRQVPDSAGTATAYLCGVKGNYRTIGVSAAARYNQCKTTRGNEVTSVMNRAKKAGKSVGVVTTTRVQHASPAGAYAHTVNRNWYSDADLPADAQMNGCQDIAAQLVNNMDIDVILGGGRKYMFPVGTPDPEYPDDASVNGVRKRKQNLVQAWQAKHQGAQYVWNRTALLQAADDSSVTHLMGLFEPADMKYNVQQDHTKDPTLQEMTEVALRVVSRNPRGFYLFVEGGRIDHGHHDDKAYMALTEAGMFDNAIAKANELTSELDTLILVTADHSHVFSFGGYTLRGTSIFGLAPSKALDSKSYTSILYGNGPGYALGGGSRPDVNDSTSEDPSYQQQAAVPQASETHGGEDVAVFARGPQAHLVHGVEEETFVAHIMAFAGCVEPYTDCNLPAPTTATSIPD

solubility kinetic at 24 h [2, 7]: > 100 µM
solubility kinetic at 24 h [2, 8]: 89 µM
Compound: O=c1c(-c2cc([C@H]3C[C@@H]3c3ccc4cnn(CC(F)(F)F)c4c3)n3nccc3n2)cn(COP(=O)(O)O)c(=O)n1COP(=O)(O)O [Example 7, (2,4-dioxo-5-(7-((1S,2S)-2-(1-(2,2,2-trifluoroethyl)-1H-indazol-6-yl)cyclopropyl)pyrazolo[1,5-a]pyrimidin-5-yl)pyrimidine-1,3(2H,4H)-diyl)bis(methylene) bis(dihydrogen phosphate)]

half-life at 2 µM [1]: 8 min
solubility kinetic at 24 h [2, 7]: 85 µM
solubility kinetic at 24 h [2, 8]: 10 µM
half-life at 2 µM [5]: > 1580 min
Compound: O=c1[nH]c(=O)n(COP(=O)(O)O)cc1-c1cc([C@H]2C[C@@H]2c2ccc3cnn(CC(F)(F)F)c3c2)n2nccc2n1 [Example 6, (2,4-dioxo-5-(7-((1S,2S)-2-(1-(2,2,2-trifluoroethyl)-1H-indazol-6-yl)cyclopropyl)pyrazolo[1,5-a]pyrimidin-5-yl)-3,4-dihydropyrimidin-1(2H)-yl)methyl dihydrogen phosphate]

half-life at 2 µM [1]: 14 min
solubility kinetic at 24 h [2, 7]: 86 µM
solubility kinetic at 24 h [2, 8]: 79 µM
half-life at 2 µM [5]: > 1580 min
Compound: O=c1[nH]c(=O)n(COP(=O)(O)O)cc1-c1cc([C@H]2C[C@@H]2c2ccc3cnn(CC(F)(F)F)c3n2)c2ncc(F)n2n1 [Example 5, (5-(3-fluoro-8-((1S,2S)-2-(1-(2,2,2-trifluoroethyl)-1H-pyrazolo[3,4-b]pyridin-6-yl)cyclopropyl)imidazo[1,2-b]pyridazin-6-yl)-2,4-dioxo-3,4-dihydropyrimidin-1(2H)-yl)methyl dihydrogen phosphate]

solubility kinetic at 24 h [2, 7]: > 100 µM
solubility kinetic at 24 h [2, 8]: 91 µM
Compound: O=c1c(-c2cc([C@H]3C[C@@H]3c3ccc4cnn(CC(F)(F)F)c4c3)c3ncc(F)n3n2)cn(COP(=O)(O)O)c(=O)n1COP(=O)(O)O [Example 3, (5-(3-fluoro-8-((1S,2S)-2-(1-(2,2,2-trifluoroethyl)-1H-indazol-6-yl)cyclopropyl)imidazo[1,2-b]pyridazin-6-yl)-2,4-dioxopyrimidine-1,3(2H,4H)-diyl)bis(methylene) bis(dihydrogen phosphate)]

More lines, now with the values behind:

Compound: O=c1[nH]c(=O)n(COP(=O)(O)O)cc1-c1cc([C@H]2C[C@@H]2c2ccc3cnn(CC(F)(F)F)c3c2)c2nccn2n1 [Example 2, (2,4-dioxo-5-(8-((1S,2S)-2-(1-(2,2,2-trifluoroethyl)-1H-indazol-6-yl)cyclopropyl)imidazo[1,2-b]pyridazin-6-yl)-3,4-dihydropyrimidin-1(2H)-yl)methyl dihydrogen phosphate]
half-life at 2 µM [1]: 11 min
solubility kinetic at 24 h [2, 7]: 89 µM
solubility kinetic at 24 h [2, 8]: 3 µM

Compound: CC1(C)CN(c2cc(-c3c[nH]c(=O)[nH]c3=O)nn3ccnc23)CC1(F)F [Comparator B HCl salt, 5-[8-(3,3-difluoro-4,4-dimethyl-pyrrolidin-1-yl)imidazo[1,2-b]pyridazin-6-yl]-1H-pyrimidine-2,4-dione, reference compound]
AUC(0-t) ([3]; cynomolgus monkey, 120 mg fixed (30 mg/kg) suspension, Comparator B measured in plasma, read-out: Comparator B AUC 0-24 h): 33.2 µM·h

Compound: CC1(C)CN(c2cc(-c3cn(COP(=O)(O)O)c(=O)[nH]c3=O)nn3ccnc23)CC1(F)F [Example 1, (5-(8-(3,3-difluoro-4,4-dimethylpyrrolidin-1-yl)imidazo[1,2-b]pyridazin-6-yl)-2,4-dioxo-3,4-dihydropyrimidin-1(2H)-yl)methyl dihydrogen phosphate]
FaSSIF (pH 6.5) [4]: >1000 ug/mL
FeSSIF (pH 5.0) [4]: >1000 ug/mL
AUC 0-24 h measured for Comparator B in plasma, compared with dosing an equivalent dose of Comparator B ([3]; 12.5 mg/kg (50 mg-fixed) suspension): higher
half-life at 2 µM [1]: 10 min
solubility kinetic at 24 h [2, 7]: > 100 µM
solubility kinetic at 24 h [2, 8]: > 100 µM
half-life at 2 µM [5]: > 1580 min

Compound: 5-(8-((1S,2S)-2-(1-(2,2,2-trifluoroethyl)-1H-indazol-5-yl)cyclopropyl)imidazo[1,2-b]pyridazin-6-yl)pyrimidine-2,4(1H,3H)-dione [reference compound]
FaSSIF (pH 6.5) [4]: 0.7 ug/mL
FeSSIF (pH 5.0) [4]: 12.4 ug/mL
Kinetic Solubility pH 1 [2, 9]: 72 uM
Kinetic Solubility pH 7 [2, 10]: 10 uM

Compound: 5-(3-fluoro-8-((1S,2S)-2-(1-(2,2,2-trifluoroethyl)-1H-pyrazolo[3,4-b]pyridin-6-yl)cyclopropyl)imidazo[1,2-b]pyridazin-6-yl)pyrimidine-2,4(1H,3H)-dione [reference compound]
Kinetic Solubility pH 1 [2, 9]: 9 uM
Kinetic Solubility pH 7 [2, 10]: 6 uM

Compound: O=c1[nH]cc(-c2cc([C@H]3C[C@@H]3c3ccc4cnn(CC(F)(F)F)c4n3)c3ncc(F)n3n2)c(=O)[nH]1 [E, reference compound]
solubility kinetic at 24 h [2, 7]: 8 µM (≈ 3.89 µg/mL)
solubility kinetic at 24 h [2, 8]: 94 µM (≈ 45.7 µg/mL)

Compound: 5-(7-((1S,2S)-2-(1-(2,2,2-trifluoroethyl)-1H-indazol-6-yl)cyclopropyl)pyrazolo[1,5-a]pyrimidin-5-yl)pyrimidine-2,4(1H,3H)-dione [reference compound]
FaSSIF (pH 6.5) [4]: 0.5 ug/mL
FeSSIF (pH 5.0) [4]: 11.1 ug/mL
Kinetic Solubility pH 1 [2, 9]: 65 uM
Kinetic Solubility pH 7 [2, 10]: 7 uM

Compound: O=c1[nH]cc(-c2cc([C@H]3C[C@@H]3c3ccc4cnn(CC(F)(F)F)c4c3)c3ncc(F)n3n2)c(=O)[nH]1 [Comparator C HCl salt, reference compound]
AUC(0-t) [6]: 11.2 µM·h

Compound: CC1(C)CN(c2cc(-c3c[nH]c(=O)[nH]c3=O)nn3ccnc23)CC1(F)F [B, 5-[8-(3,3-difluoro-4,4-dimethyl-pyrrolidin-1-yl)imidazo[1,2-b]pyridazin-6-yl]-1H-pyrimidine-2,4-dione, reference compound]
FaSSIF (pH 6.5) [4]: 12 ug/mL
FeSSIF (pH 5.0) [4]: 33 ug/mL
solubility kinetic at 24 h [2, 7]: 5 µM (≈ 1.81 µg/mL)
solubility kinetic at 24 h [2, 8]: 95 µM (≈ 34.4 µg/mL)

— patent publication US11919869B2, “CD73 compounds” (Gilead Sciences, Inc., priority 2021, dated 2024)
